Measurements published in patent publication US11345669B2, “Urea derivatives and methods of use thereof” (NodThera Limited, priority 2017, dated 2022).
pIC50: −log10 of the molar value.

Each compound was assayed on IL1-β release upon NLRP3 activation in peripheral blood mononuclear cells (PBMC) (assay: PBMC IC50 Determination Assay). Conditions: Homo sapiens; PBMC from buffy coats, LPS 3 h, compound 30 min, then ATP (5 mM) or nigericin (10 μM) for 1 h; IL-1β in media by ELISA; read-out: PBMCs, IC50.
Format: cell-based
Description: PBMC IC50 Determination Assay
The compounds of the present disclosure were tested for their inhibitory activity against IL1-β release upon NLRP3 activation in peripheral blood mononuclear cells (PBMC).
Isolated cells were seeded into the wells of a 96-well plate and incubated for 3 h with lipopolysaccharide (LPS). Following medium exchange, the compounds of the present disclosure were added (a single compound per well) and the cells were incubated for 30 min. Next, the cells were stimulated either with ATP (5 mM) or nigericin (10 μM) for 1 h and the cell culture media from the wells were collected for further analysis.
The release of IL-1β into the media was determined by a quantitative detection of IL-1β in 5 the media using an IL-1β enzyme-linked immunosorbent assay (ELISA) Ready-SET-Go!, eBioscience cat. […] Subsequently, plates were blocked with blocking buffer for 1 h at room temperature (rt) and after washing with a buffer (PBS with 0.05% Tween-20) incubated with protein standard and culture media. […] Plates were washed and incubated with HRP-streptavidin for 30 min at rt and washed again. The signal was developed after addition of 3,39,S,59-tetramethylbenzidine-peroxidase (TMB) until color appeared and the reaction was stopped by 2 M H2SO4. A microplate spectrophotometer (BioTek) was used to detect signals with 450 nm. The detection range of IL-1β ELISA was […].

**Q.** `COC(=O)C(Cc1cccc(O)c1)NC(=O)Nc1c2c(cc3c1CCC3)CCC2` (stereo not drawn) [Example 2A, Methyl2-{[(1,2,3,5,6,7-hexahydro-s-indacen-4-yl)carbamoyl]amino}-3-(3-hydroxyphenyl)propanoate] was tested. Which pIC50 did it give?
**A.** 5.60

**Q.** `CC(C)OC(=O)CNC(=O)Nc1c2c(cc3c1CCC3)CCC2` [Example 2AA, propan-2-yl 2-{[(1,2,3,5,6,7-hexahydro-s-indacen-4-yl)carbamoyl]amino}acetate] was tested. Which pIC50 did it give?
**A.** 5.74

**Q.** `CCOC(=O)C(Cc1ccon1)NC(=O)Nc1c2c(cc3c1CCC3)CCC2` (stereo not drawn) [Example 2AB, Ethyl 2-{[(1,2,3,5,6,7-hexahydro-s-indacen-4-yl)carbamoyl]amino}-3-(1,2-oxazol-3-yl)propanoate] was tested. Which pIC50 did it give?
**A.** 5.74

**Q.** How did the pIC50 turn out when `CCOC(=O)C(Cc1ncco1)NC(=O)Nc1c2c(cc3c1CCC3)CCC2` (stereo not drawn) [Example 2AC, Ethyl 2-{[(1,2,3,5,6,7-hexahydro-s-indacen-4-yl)carbamoyl]amino}-3-(1,3-oxazol-2-yl)propanoate] was run?
**A.** 6.17

**Q.** `CCOC(=O)[C@@H](Cc1cccnc1)NC(=O)Nc1cc2c(cc1C(C)C)CCC2` [Example 2AD, Ethyl (2R)-2-({[6-(propan-2-yl)-2,3-dihydro-1H-inden-5-yl]carbamoyl}amino)-3-(pyridin-3-yl)propanoate] was tested. Which pIC50 did it give?
**A.** 5.54

**Q.** `COC(=O)[C@@H](Cc1cncnc1)NC(=O)Nc1c2c(cc3c1CCC3)CCC2` [Example 2AE, Methyl (2R)-2-{[(1,2,3,5,6,7-hexahydro-s-indacen-4-yl)carbamoyl]amino}-3-(pyrimidin-5-yl)propanoate] was tested. Which pIC50 did it give?
**A.** 5.35

**Q.** With `COC(=O)[C@@H](Cc1cnccn1)NC(=O)Nc1c2c(cc3c1CCC3)CCC2` [Example 2AF, Methyl (2R)-2-{[(1,2,3,5,6,7-hexahydro-s-indacen-4-yl)carbamoyl]amino}-3-(pyrazin-2-yl)propanoate] as the compound, how does the pIC50 read?
**A.** 6.34

**Q.** With `CCOC(=O)C(Cc1ccnnc1)NC(=O)Nc1c2c(cc3c1CCC3)CCC2` (stereo not drawn) [Example 2AG, Ethyl 2-{[(1,2,3,5,6,7-hexahydro-s-indacen-4-yl)carbamoyl]amino}-3-(pyridazin-4-yl)propanoate] as the compound, how does the pIC50 read?
**A.** 5.22

**Q.** `CCOC(=O)C(Cc1ccncn1)NC(=O)Nc1c2c(cc3c1CCC3)CCC2` (stereo not drawn) [Example 2AI, ethyl 2-{[(1,2,3,5,6,7-hexahydro-s-indacen-4-yl)carbamoyl]amino}-3-(pyrimidin-4-yl)propanoate] was tested. Which pIC50 did it give?
**A.** 5.17

**Q.** With `O=C(Nc1c2c(cc3c1CCC3)CCC2)NC(Cc1ncccn1)C(=O)O` (stereo not drawn) [Example 2AJ, 2-{[(1,2,3,5,6,7-hexahydro-s-indacen-4-yl)carbamoyl]amino}-3-(pyrimidin-2-yl)propanoic acid] as the compound, how does the pIC50 read?
**A.** 4.82

**Q.** With `COC(=O)C(Cc1ccccc1O)NC(=O)Nc1c2c(cc3c1CCC3)CCC2` (stereo not drawn) [Example 2B, Methyl2-{[(1,2,3,5,6,7-hexahydro-s-indacen-4-yl)carbamoyl]amino}-3-(2-hydroxyphenyl)propanoate] as the compound, how does the pIC50 read?
**A.** 7.22

**Q.** How did the pIC50 turn out when `COC(=O)[C@@H](CC(N)=O)NC(=O)Nc1c2c(cc3c1CCC3)CCC2` [Example 2BB, methyl(2R)-3-carbamoyl-2-{[(1,2,3,5,6,7-hexahydro-s-indacen-4yl)carbamoyl]amino}propanoate] was run?
**A.** 4.49

**Q.** `COC(=O)C(Cc1cccc(C(C)=O)c1)NC(=O)Nc1c2c(cc3c1CCC3)CCC2` (stereo not drawn) [Example 2C, Methyl 3-(3-acetylphenyl)-2-{[(1,2,3,5,6,7-hexahydro-s-indacen-4-yl)carbamoyl]amino}propanoate] was tested. Which pIC50 did it give?
**A.** 6.46

**Q.** With `COC(=O)[C@@H](Cc1cccs1)NC(=O)Nc1c2c(cc3c1CCC3)CCC2` [Example 2CC, methyl (2R)-2-{[(1,2,3,5,6,7-hexahydro-s-indacen-4-yl)carbamoyl]amino}-3-(thiophen-2-yl)propanoate] as the compound, how does the pIC50 read?
**A.** 6.30

**Q.** With `COC(=O)[C@@H](Cc1ccc(C#N)cc1)NC(=O)Nc1c2c(cc3c1CCC3)CCC2` [Example 2D, Methyl (2R)-3-(4-cyanophenyl)-2-{[(1,2,3,5,6,7-hexahydro-s-indacen-4-yl)carbamoyl]amino}propanoate] as the compound, how does the pIC50 read?
**A.** 5.85

**Q.** `COC(=O)C(Cn1ccnc1)NC(=O)Nc1c2c(cc3c1CCC3)CCC2` (stereo not drawn) [Example 2DD, methyl 2-{[(1,2,3,5,6,7-hexahydro-s-indacen-4-yl)carbamoyl]amino}-3-(1H-imidazol-1-yl)propanoate] was tested. Which pIC50 did it give?
**A.** 5.21

**Q.** How did the pIC50 turn out when `COC(=O)[C@@H](Cc1cccc(C#N)c1)NC(=O)Nc1c2c(cc3c1CCC3)CCC2` [Example 2E, Methyl(2R)-3-(3-cyanophenyl)-2-{[(1,2,3,5,6,7-hexahydro-s-indacen-4-yl)carbamoyl]amino}propanoate] was run?
**A.** 5.77

**Q.** How did the pIC50 turn out when `COC(=O)CNC(=O)Nc1c2c(cc3c1CCC3)CCC2` [Example 2EE, methyl 2-{[(1,2,3,5,6,7-hexahydro-s-indacen-4-yl)carbamoyl]amino}acetate] was run?
**A.** 5.43

**Q.** `COC(=O)[C@@H](Cc1ccccn1)NC(=O)Nc1c2c(cc3c1CCC3)CCC2` [Example 2F, Methyl (2R)-2-{[(1,2,3,5,6,7-hexahydro-s-indacen-4-yl)carbamoyl]amino}-3-(pyridin-2-yl)propanoate] was tested. Which pIC50 did it give?
**A.** 5.38

**Q.** With `COC(=O)C(Cc1cccc(CO)c1)NC(=O)Nc1c2c(cc3c1CCC3)CCC2` (stereo not drawn) [Example 2G, Methyl2-{[(1,2,3,5,6,7-hexahydro-s-indacen-4-yl)carbamoyl]amino}-3-[3-(hydroxymethyl)phenyl]propanoate] as the compound, how does the pIC50 read?
**A.** 5.85

**Q.** How did the pIC50 turn out when `COC(=O)[C@@H](Cc1cccnc1)NC(=O)Nc1c2c(cc3c1CCC3)CCC2` [Example 2H, Methyl (2R)-2-{[(1,2,3,5,6,7-hexahydro-s-indacen-4-yl)carbamoyl]amino}-3-(pyridin-3-yl)propanoate] was run?
**A.** 6.06

**Q.** `COC(=O)[C@@H](Cc1cccc(N)c1)NC(=O)Nc1c2c(cc3c1CCC3)CCC2` [Example 2HH, methyl(2R)-3-(3-aminophenyl)-2-{[(1,2,3,5,6,7-hexahydro-s-indacen-4yl)carbamoyl]amino}propanoate] was tested. Which pIC50 did it give?
**A.** 5.36

**Q.** How did the pIC50 turn out when `COC(=O)C(Cc1cccc(-c2cncn2C)c1)NC(=O)Nc1c2c(cc3c1CCC3)CCC2` (stereo not drawn) [Example 2I, Methyl 2-{[(1,2,3,5,6,7-hexahydro-s-indacen-4-yl)carbamoyl]amino}-3-[3-(1-methyl-1H-imidazol-5-yl)phenyl]propanoate] was run?
**A.** 6.02

**Q.** How did the pIC50 turn out when `COC[C@@H](NC(=O)Nc1c2c(cc3c1CCC3)CCC2)C(=O)OC` [Example 2II, methyl(2R)-2-{[(1,2,3,5,6,7-hexahydro-s-indacen-4-yl)carbamoyl]amino}-3-methoxypropanoate] was run?
**A.** 5.28

**Q.** How did the pIC50 turn out when `COC(=O)C(Cc1cccc(-c2cc[nH]n2)c1)NC(=O)Nc1c2c(cc3c1CCC3)CCC2` (stereo not drawn) [Example 2J, Methyl 2-{[(1,2,3,5,6,7-hexahydro-s-indacen-4-yl)carbamoyl]amino}-3-[3-(1H-pyrazol-5-yl)phenyl]propanoate] was run?
**A.** 6.39

**Q.** `COC(=O)[C@@H](CO)NC(=O)Nc1c2c(cc3c1CCC3)CCC2` [Example 2JJ, methyl(2R)-2-{[(1,2,3,5,6,7-hexahydro-s-indacen-4-yl)carbamoyl]amino}-3-hydroxypropanoate] was tested. Which pIC50 did it give?
**A.** 4.59

**Q.** `COC(=O)[C@@H](Cc1cccc(O)c1)NC(=O)Nc1c2c(cc3c1CCC3)CCC2` [Example 2K, Methyl(2R)-2-{[(1,2,3,5,6,7-hexahydro-s-indacen-4-yl)carbamoyl]amino}-3-(3-hydroxyphenyl)propanoate] was tested. Which pIC50 did it give?
**A.** 5.89
